ChEMBL document CHEMBL1201862, “PubChem BioAssay data set” (2004)
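48-hour exposure; five concentrations; linearly interpolated endpoints. Here, GI50 denotes the concentration required for 50% inhibition of growth.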 Active and inactive are the calls of the source. Cut-off read from the data, not from the text of the source: active = GI50 up to about 1.1 µM and inactive = higher.

Assays:
Experiment in all cases: growth of human tumour cells (NCI), 48 h
[1] = system: 786-0
[2] = system: A498
[3] = system: A549
[4] = system: ACHN
[5] = system: BT-549
[6] = system: CAKI-1
[7] = system: CCRF-CEM
[8] = system: COLO 205
[9] = system: DU-145
[10] = system: EKVX
[11] = system: HCC 2998
[12] = system: HCT-116
[13] = system: HCT-15
[14] = system: HL-60
[15] = system: HOP-62
[16] = system: HOP-92
[17] = system: HT-29
[18] = system: Hs-578T
[19] = system: IGROV-1
[20] = system: K562
[21] = system: KM12
[22] = system: LOX IMVI
[23] = system: MCF7
[24] = system: MDA-MB-231
[25] = system: MDA-MB-435
[26] = system: MDA-N
[27] = system: MOLT-4
[28] = system: Malme-3M
[29] = system: NCI-H226
[30] = system: NCI-H23
[31] = system: NCI-H460
[32] = system: NCI-H522
[33] = system: NCI/ADR-RES
[34] = system: OVCAR-3
[35] = system: OVCAR-4
[36] = system: OVCAR-5
[37] = system: OVCAR-8
[38] = system: PC-3
[39] = system: RPMI-8226
[40] = system: RXF 393
[41] = system: SF-268
[42] = system: SF-295
[43] = system: SF-539
[44] = system: SK-MEL-28
[45] = system: SK-MEL-2
[46] = system: SK-MEL-5
[47] = system: SK-OV-3
[48] = system: SN12C
[49] = system: SNB-19
[50] = system: SNB-75
[51] = system: SR
[52] = system: SW-620
[53] = system: T47D
[54] = system: TK-10
[55] = system: U-251
[56] = system: UACC-257
[57] = system: UACC-62
[58] = system: UO-31
[59] = system: M14

## Cc1ccc(/C=C2\CCCC(CN3CCCCC3)C2=O)cc1 (stereo not drawn)
[1]
  GI50: 2.02 µM (inactive)
[2]
  GI50: 13.4 µM (inactive)
[3]
  GI50: 17.7 µM (inactive)
[4]
  GI50: 3.98 µM (inactive)
[5]
  GI50: 2.29 µM (inactive)
[6]
  GI50: 1.79 µM (inactive)
[7]
  GI50: 0.757 µM (active)
[8]
  GI50: 1.82 µM (inactive)
[9]
  GI50: 11.7 µM (inactive)
[10]
  GI50: 17.6 µM (inactive)
[11]
  GI50: 15.3 µM (inactive)
[12]
  GI50: 1.76 µM (inactive)
[13]
  GI50: 2.14 µM
[14]
  GI50: 0.555 µM (active)
[15]
  GI50: 20.3 µM (inactive)
[16]
  GI50: 1.81 µM (inactive)
[17]
  GI50: 1.77 µM (inactive)
[18]
  GI50: 2.13 µM (inactive)
[19]
  GI50: 1.96 µM (inactive)
[20]
  GI50: 1.57 µM (inactive)
[21]
  GI50: 1.27 µM (inactive)
[22]
  GI50: 1.84 µM (inactive)
[23]
  GI50: 0.721 µM (active)
[24]
  GI50: 1.85 µM (inactive)
[25]
  GI50: 1.82 µM (inactive)
[26]
  GI50: 2.77 µM (inactive)
[27]
  GI50: 4 µM (inactive)
[28]
  GI50: 2.51 µM (inactive)
[29]
  GI50: 2.29 µM (inactive)
[30]
  GI50: 2.17 µM (inactive)
[31]
  GI50: 3.89 µM (inactive)
[32]
  GI50: 1.79 µM (inactive)
[33]
  GI50: 5.38 µM (inactive)
[34]
  GI50: 1.87 µM (inactive)
[35]
  GI50: 1.79 µM (inactive)
[36]
  GI50: 15 µM (inactive)
[37]
  GI50: 2.64 µM (inactive)
[38]
  GI50: 2.79 µM (inactive)
[39]
  GI50: > 100 µM (inactive)
[40]
  GI50: 1.56 µM (inactive)
[41]
  GI50: 2.09 µM (inactive)
[42]
  GI50: 17.2 µM (inactive)
[43]
  GI50: 4.42 µM (inactive)
[44]
  GI50: 1.63 µM (inactive)
[45]
  GI50: 2.89 µM (inactive)
[46]
  GI50: 4.66 µM (inactive)
[47]
  GI50: 16.5 µM (inactive)
[48]
  GI50: 2.96 µM (inactive)
[49]
  GI50: 15.2 µM (inactive)
[50]
  GI50: 4.66 µM (inactive)
[51]
  GI50: 0.767 µM (active)
[52]
  GI50: 1.75 µM (inactive)
[53]
  GI50: 1.82 µM (inactive)
[54]
  GI50: 3.22 µM (inactive)
[55]
  GI50: 14.3 µM (inactive)
[56]
  GI50: 1.93 µM (inactive)
[57]
  GI50: 4.73 µM (inactive)
[58]
  GI50: 1.84 µM (inactive)

## C=C(C(=O)O)[C@@H]1C[C@@H](OC(C)=O)[C@]2(C)CC/C=C(\C)CCC[C@H](C)[C@H](O)[C@@H]1O2
[1]
  GI50: 44.5 µM (inactive)
[2]
  GI50: > 100 µM (inactive)
[3]
  GI50: 43 µM (inactive)
[4]
  GI50: 55.7 µM (inactive)
[5]
  GI50: 25.1 µM (inactive)
[6]
  GI50: 71 µM (inactive)
[7]
  GI50: 22.4 µM (inactive)
[8]
  GI50: 33.1 µM (inactive)
[9]
  GI50: 83.9 µM (inactive)
[10]
  GI50: 45.5 µM (inactive)
[11]
  GI50: > 100 µM (inactive)
[12]
  GI50: 52.8 µM (inactive)
[13]
  GI50: 41.8 µM
[14]
  GI50: 22.3 µM (inactive)
[16]
  GI50: 46 µM (inactive)
[17]
  GI50: 47.3 µM (inactive)
[18]
  GI50: 49.9 µM (inactive)
[19]
  GI50: 36.8 µM (inactive)
[20]
  GI50: 75.2 µM (inactive)
[21]
  GI50: 41.9 µM (inactive)
[22]
  GI50: 30.3 µM (inactive)
[59]
  GI50: 28.2 µM (inactive)
[23]
  GI50: 26.7 µM (inactive)
[24]
  GI50: > 100 µM (inactive)
[25]
  GI50: 24.2 µM (inactive)
[26]
  GI50: 24.5 µM (inactive)
[27]
  GI50: 24.7 µM (inactive)
[28]
  GI50: 61.7 µM (inactive)
[29]
  GI50: 14.9 µM (inactive)
[31]
  GI50: 66.4 µM (inactive)
[32]
  GI50: 18 µM (inactive)
[33]
  GI50: 33.3 µM (inactive)
[34]
  GI50: 37.4 µM (inactive)
[35]
  GI50: > 100 µM (inactive)
[36]
  GI50: > 100 µM (inactive)
[37]
  GI50: 27.5 µM (inactive)
[38]
  GI50: 39.7 µM (inactive)
[39]
  GI50: 17 µM (inactive)
[40]
  GI50: 18.5 µM (inactive)
[41]
  GI50: > 100 µM (inactive)
[42]
  GI50: 24.7 µM (inactive)
[43]
  GI50: 18 µM (inactive)
[44]
  GI50: 77.4 µM (inactive)
[45]
  GI50: 71.8 µM (inactive)
[46]
  GI50: 30.2 µM (inactive)
[47]
  GI50: 34.5 µM (inactive)
[48]
  GI50: 60.4 µM (inactive)
[50]
  GI50: 74.8 µM (inactive)
[51]
  GI50: 24.3 µM (inactive)
[52]
  GI50: 40.1 µM (inactive)
[53]
  GI50: > 100 µM (inactive)
[54]
  GI50: 57.4 µM (inactive)
[55]
  GI50: > 100 µM (inactive)
[56]
  GI50: 47 µM (inactive)
[57]
  GI50: 47.8 µM (inactive)
